Experimental findings from patent US8440794B2, “Peptide sequences, their branched form and use thereof for antimicrobial applications” (Universita' Degli Studi di Siena, priority 2008, dated 2013) are described below.

The test system of experiment [1] is LPS from P. aeruginosa serotype 10 ATCC27316; TNF-α secretion by Raw 264.7 macrophages. The experiment is described as follows: Inhibition of LPS-induced TNF-α secretion by Raw 264.7 macrophages, LPS from P. aeruginosa. The class given is cell-based. How it is done:
FIG. 3. Inhibition of TNF-α release by neutralization of LPS. A, Raw 264.7 cells were incubated with LPS from P. aeruginosa 20 ng/ml and M33. Triangles indicate incubation with LPS and different concentrations of M33. Squares indicate incubation with M33 only. B, Raw 264.7 cells were incubated with LPS from K. pneumoniae 5 ng/ml and M33. Triangles indicate incubation of macrophages with LPS and different concentrations of M33. Squares indicate incubation of macrophages with M33 only. SD derived by means of three different experiments. 100% indicates the maximum amount of TNF-α produced by macrophages when incubated with LPS without M33. The other percentages indicate the amount of TNF-α produced by macrophages when incubated with LPS and M33, with respect to 100%. Basal levels of TNF-α were negligible. MIC of M33 is indicated by the arrow.
Then it was examined for inhibiting LPS-induced TNF-α, secretion by Raw 264.7 macrophages.

Another experiment relates to E. coli TG1. The experiment is described as follows: In vivo antibacterial activity, mice infected ip with lethal amount of E. coli TG1. Further details: species or system Balb-c mice. As to conditions: E. coli TG1 1.5×10^9 CFU ip; single dose 10 mg/Kg ip 30 minutes later. How it is done:
FIG. 4. In vivo antibacterial activity of tetra-branched M33 peptide. A, Balb-c mice (20 g) were intra-peritoneally injected with a lethal amount of E. coli TG1 cells (1.5×10^9 CFU). Continuous line (Ctr) indicates mice only injected ip with bacteria and no M33. Broken line indicates mice injected ip with bacteria and a single injection of M33 peptide 10 mg/Kg 30 minutes later. B, Balb-c mice (20 g) were intra-peritoneally injected with a lethal amount of P. aeruginosa cells (ATCC 27853 1×10^7 CFU). Continuous line (Ctr) indicates mice which only received bacteria; other groups received bacteria and a single dose of M33 30 minutes later (see figure for doses of M33). C, Balb-c mice (20 g) were intra-peritoneally injected with a lethal amount of P. aeruginosa cells (multi drug resistant VR 147 clinical isolate, 1.5×10^7 CFU). Continuous line (Ctr) indicates mice which only received bacteria; broken line indicates mice which received bacteria and a single dose of M33 25 mg/Kg. D, Balb-c mice (20 g) were intra-peritoneally injected with a lethal amount of P. aeruginosa cells (ATCC 27853 1×10^7 CFU). […]
Tetra-branched M33 peptide was analysed for its antibacterial activity in mice infected with lethal amounts of bacteria. […]

The next experiment concerns K pneumoniae FIPP-1. The class given is cell-based, Klebsiella pneumoniae. The following applies: FIPP-1, 24 h. How it is done:
(§1) M33, […], M35 and M36 MICs were determined against strains of several bacterial species, including Gram-negative pathogens and also Staphylococcus aureus (Table 1). MICs in the micromolar range were observed against several Gram-negatives including Pseudomonas aeruginosa, Acinetobacter baumannii and most Enterobacteriaceae, with the exception of Proteus mirabilis, Serratia marcescens and Burkholderia cepacia. Activity of peptides was retained against MDR strains with various resistance mechanisms (such as extended-spectrum beta-lactamases and carbapenemases), including MDR P. aeruginosa strains from CF patients. Antimicrobial profile of M33, […] and potency were overall similar to those of polymyxin B, although M33, M34, M35 and M36 also appeared to have some activity against S. aureus (Table 1).

The test system of a further experiment is K pneumoniae 7086042. The class given is cell-based, Klebsiella pneumoniae. As to conditions: 7086042, 24 h. How it is done:
as §1

A further experiment has as its system K pneumoniae C8-27. The class given is cell-based, Klebsiella pneumoniae. The following applies: C8-27, 24 h. How it is done:
as §1

Converted amounts (≈) assume the structure as drawn. Where a SMILES comes first, the peptide text is derived from it. Bridges are numbered along the chain shown (N, C = ends). Roman numbers before positions name the chains, in order. [ ]: non-standard residue; d: D form. βAla = NCCC(=O)O

As to `CC[C@H](C)[C@H](NC(=O)[C@H](CCCCN)NC(=O)[C@@H](N)CCCCN)C(=O)N[C@@H](CCCNC(=N)N)C(=O)N[C@H](C(=O)N[C@@H](CCCNC(=N)N)C(=O)N[C@@H](CC(C)C)C(=O)N[C@@H](CO)C(=O)N[C@@H](C)C(=O)NCCCC[C@H](NC(=O)[C@H](C)NC(=O)[C@H](CO)NC(=O)[C@H](CC(C)C)NC(=O)[C@H](CCCNC(=N)N)NC(=O)[C@@H](NC(=O)[C@H](CCCNC(=N)N)NC(=O)[C@@H](NC(=O)[C@H](CCCCN)NC(=O)[C@@H](N)CCCCN)[C@@H](C)CC)C(C)C)C(=O)NCCCC[C@H](NC(=O)[C@H](CCCCNC(=O)[C@H](C)NC(=O)[C@H](CO)NC(=O)[C@H](CC(C)C)NC(=O)[C@H](CCCNC(=N)N)NC(=O)[C@@H](NC(=O)[C@H](CCCNC(=N)N)NC(=O)[C@@H](NC(=O)[C@H](CCCCN)NC(=O)[C@@H](N)CCCCN)[C@@H](C)CC)C(C)C)NC(=O)[C@H](C)NC(=O)[C@H](CO)NC(=O)[C@H](CC(C)C)NC(=O)[C@H](CCCNC(=N)N)NC(=O)[C@@H](NC(=O)[C@H](CCCNC(=N)N)NC(=O)[C@@H](NC(=O)[C@H](CCCCN)NC(=O)[C@@H](N)CCCCN)[C@@H](C)CC)C(C)C)C(=O)NCCC(=O)O)C(C)C` [M33, KKIRVRLSA] (I: H-KKIRVRLSAKK[βAla]-OH / II: H-KKIRVRLSAK / III: H-KKIRVRLSA / IV: H-KKIRVRLSA; amide I:10-IV:C, I:11-II:C, II:10-III:C; N-terminus assumed), the EC50 – broadly, the midpoint of the concentration-response curve – in experiment [1] (Raw 264.7 macrophages, LPS from P. aeruginosa serotype 10 ATCC27316, 20 ng/ml, read-out: EC50, block of TNF-α secretion) stood at 40 nM. The “Decrease of TNF-α production” value in experiment [1] (at a concentration corresponding to MIC (1.5-3 μM), LPS from P. aeruginosa) is recorded as “more than 90%”. Further, in the experiment on E. coli TG1, the “Animals protected from signs of sepsis and death (seven-day survival)” value is given as 100%. In addition, the MIC (in general, the lowest concentration that inhibits growth of the organism) in the experiment on K pneumoniae FIPP-1 is 3 µM (≈ 14 µg/mL); in the experiment with K pneumoniae 7086042 it was 3 µM (≈ 14 µg/mL); against K pneumoniae C8-27 it was 1.5 µM (≈ 7.02 µg/mL).
